The values that follow come from patent US7767649B2, “Amino acid conjugates providing for sustained systemic concentrations of GABA analogues” (XenoPort, Inc., priority 2002, dated 2010).

The test system of this assay is PEPT2. In words: Electrogenic transport in Xenopus oocytes expressing PEPT2 (two-electrode electrophysiology). The assay is classed as cell-based. Conditions: compound at 1 mM, normalized to saturating glycyl-sarcosine (1 mM). The method, then: Rat and human PEPT1 and PEPT2 expressing CHO cell lines were prepared as described in PCT Application WO01/20331. Gabapentin-containing dipeptides were evaluated for interaction with the peptide transporters using a radiolabeled substrate uptake assay in a competitive inhibition format, as described in PCT Application WO01/20331. Transport-induced currents were also measured in Xenopus oocytes transfected with rat and human PEPT1 and PEPT2.
Rat and human PEPT1 and PEPT2 transporter cDNAs were subcloned into a modified pGEM plasmid that contains 5′ and 3′ untranslated sequences from the Xenopus β-actin gene. These sequences increase RNA stability and protein expression. Plasmid cDNA was linearized and used as template for in vitro transcription (Epicentre Technologies transcription kit, 4:1 methylated:non-methylated GTP).
Xenopus laevis frogs were anesthetized by immersion in Tricaine ([…] in deionized water) for 15 min. Oocytes were removed and digested in frog ringer solution (90 mM NaCl, 2 mM KCl, 1 mM MgCl2, 10 mM NaHEPES, pH 7.45, no CaCl2) with 1 mg/mL collagenase (Worthington Type 3) for 80-100 min with shaking. […]
Transport currents were measured 2-14 days after injection, using a standard two-electrode electrophysiology set-up (Geneclamp 500 amplifier, Digidata 1320/PCLAMP software and ADInstruments hardware and software were used for signal acquisition). […]

Consider `C[C@H](NC(=O)[C@@H](N)CNC(=O)CC1(CN)CCCCC1)C(=O)O` [N-β-(Gabapentinyl)-L-Diaminopropionyl-L-Alanine], for which the “induced current as % of Imax” value turned out to be 45%.
